Measurements reported in patent publication US11000033B2, “Ketone or oxime compound, and herbicide” (NISSAN CHEMICAL CORPORATION, priority 2014, dated 2021).

Key:
Format in all cases: in vivo
[1] = tested on: soybean; assay: Test Example 4: effect on crop by soil treatment (symbol d); details: 320 g/ha
In short: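 Crop seeds, among them rice, wheat, beet and rapeseed, were sown in sterilized diluvial soil and covered with about 1.5 cm of soil. Boxes were kept in a greenhouse at 25° C. to 30° C. for plant growth.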

[2] = tested on: Apera spica-venti; assay: Test Example 4: herbicidal effect by soil treatment (symbol L); details: 320 g/ha
In short: (§1)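 Seeds were sown in sterilized diluvial soil, covered with about 1.5 cm of soil, and the soil surface was sprayed with a water-diluted emulsion of the compound at a predetermined rate. Plants grew in a greenhouse at 25° C. to 30° C.; effects were scored visually 3 weeks after application.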

[3] = tested on: Digitaria ciliaris; assay: Test Example 5: herbicidal effect by foliage application, plastic box (symbol F); details: 320 g/ha, 3 weeks after application
In short: (§2)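 After sowing into sterilized diluvial soil and growing two weeks under glass at 25° C. to 30° C., seedlings receive a uniform foliar spray of diluted emulsion. Damage is judged visually three weeks on.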

[4] = tested on: corn; assay: Test Example 5: effect on crop by foliage application, plastic box (symbol c); details: 320 g/ha, 3 weeks after application
In short: (§3)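 Diluvial soil, sterilized and boxed (21 × 13 × 7 cm), received spot-sown seed covered by about 1.5 cm soil; plants were then greenhouse-grown at 25–30° C.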

[5] = tested on: Abutilon theophrasti; assay: Test Example 5: herbicidal effect by foliage application, plastic box (symbol M); details: 320 g/ha, 3 weeks after application
In short: as §2

[6] = tested on: Veronica persica; assay: Test Example 5: herbicidal effect by foliage application, plastic box (symbol R); details: 320 g/ha, 3 weeks after application
In short: as §2

[7] = tested on: soybean; assay: Test Example 5: effect on crop by foliage application, plastic box (symbol d); details: 320 g/ha, 3 weeks after application
In short: as §3

[8] = tested on: Chenopodium album; assay: Test Example 4: herbicidal effect by soil treatment (symbol O); details: 320 g/ha
In short: as §1

[9] = tested on: Echinochloa oryzacola Vasing.; assay: Test Example 1: herbicidal activity, application before weed generation in submerged conditions (symbol A); details: application herbicide amount 320 g/ha
In short: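 Flooded alluvial soil (4 cm water) was mixed-sown with the three weed species, and 2.5-leaf rice seedlings were transplanted. On sowing day, a water-diluted emulsion at a predetermined rate was applied to the water surface. After 3 weeks in a 25–30 °C greenhouse, effect was scored 0–5.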

[10] = tested on: Avena fatua; assay: Test Example 5: herbicidal effect by foliage application, plastic box (symbol I); details: 320 g/ha, 3 weeks after application
In short: as §2

[11] = tested on: Galium spurium; assay: Test Example 4: herbicidal effect by soil treatment (symbol Q); details: 320 g/ha
In short: as §1

[12] = tested on: Echinochloa crus-galli var. crus-galli; assay: Test Example 4: herbicidal effect by soil treatment (symbol H); details: 320 g/ha
In short: as §1

[13] = tested on: transplanted rice plant; assay: Test Example 1: effect on crop, application before weed generation in submerged conditions (symbol a); details: application herbicide amount 320 g/ha
In short: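 Alluvial soil pots flooded to 4 cm water, sown with Echinochloa oryzacola, Scirpus juncoides and Monochoria vaginalis, then transplanted with 2.5 leaf stage rice seedlings; pre-emergence application. Greenhouse 25° C. to 30° C.; scored 0–5 by herbicidal ratio 3 weeks after application.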

[14] = tested on: Abutilon theophrasti; assay: Test Example 4: herbicidal effect by soil treatment (symbol M); details: 320 g/ha
In short: as §1

[15] = tested on: directly sowed rice plant; assay: Test Example 3: effect on crop by foliage application, Wagner pot (symbol b); details: application herbicide amount 320 g/ha
In short: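 Greenhouse culture at 25–30 °C of seeded rice, Cyperus difformis, Leptochloa chinensis and Echinochloa crus-galli var. crus-galli, in alluvial soil held under 0.1–0.5 cm of water in a Wagner pot.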

Compound	d: soybean, effect grade on crop [1]	L: Apera spica-venti, herbicidal effect grade [2]	F: Digitaria ciliaris, herbicidal effect (criteria 0-5) [3]	c: corn, effect on crop (criteria 0-5) [4]	M: Abutilon theophrasti, herbicidal effect (criteria 0-5) [5]	R: Veronica persica, herbicidal effect (criteria 0-5) [6]	d: soybean, effect on crop (criteria 0-5) [7]	O: Chenopodium album, herbicidal effect grade [8]	Herbicidal effect grade, A: Echinochloa oryzacola Vasing. [9]	I: Avena fatua, herbicidal effect (criteria 0-5) [10]	Q: Galium spurium, herbicidal effect grade [11]	H: Echinochloa crus-galli var. crus-galli, herbicidal effect grade [12]	Effect grade on crop, a: transplanted rice plant [13]	M: Abutilon theophrasti, herbicidal effect grade [14]	effect on crop b (directly sowed rice plant), grade 0-5 [15]
CON=C(CC1CC(O)=C(c2c(C)cc(C)cc2C)C1=O)C(F)(F)F (stereo not shown) [1-097]	0 (Herbicidal ratio of 5% or lower (almost no effect))	0 (Herbicidal ratio of 5% or lower (almost no effect))	5 (Herbicidal ratio of 90% or more (almost completely withered))	5 (Herbicidal ratio of 90% or more (almost completely withered))	3 (Herbicidal ratio of 40% or higher and lower than 70%)	3 (Herbicidal ratio of 40% or higher and lower than 70%)	3 (Herbicidal ratio of 40% or higher and lower than 70%)	3 (Herbicidal ratio of 40% or higher and lower than 70%)	3 (Herbicidal ratio of 40% or higher and lower than 70%)	3 (Herbicidal ratio of 40% or higher and lower than 70%)	0 (Herbicidal ratio of 5% or lower (almost no effect))	2 (Herbicidal ratio of 20% or higher and lower than 40%)	3 (Herbicidal ratio of 40% or higher and lower than 70%)	0 (Herbicidal ratio of 5% or lower (almost no effect))	
CON=C(C)CC1CC(OC(=O)CSc2ccccc2)=C(c2c(C)cc(C)cc2C)C1=O (stereo not shown) [1-134]	0 (Herbicidal ratio of 5% or lower (almost no effect))		5 (Herbicidal ratio of 90% or more (almost completely withered))	5 (Herbicidal ratio of 90% or more (almost completely withered))	2 (Herbicidal ratio of 20% or higher and lower than 40%)	1 (Herbicidal ratio of 5% or higher and lower than 20%)	2 (Herbicidal ratio of 20% or higher and lower than 40%)	0 (Herbicidal ratio of 5% or lower (almost no effect))	5 (Herbicidal ratio of 90% or more (almost completely withered))	5 (Herbicidal ratio of 90% or more (almost completely withered))	0 (Herbicidal ratio of 5% or lower (almost no effect))	5 (Herbicidal ratio of 90% or more (almost completely withered))	5 (Herbicidal ratio of 90% or more (almost completely withered))	3 (Herbicidal ratio of 40% or higher and lower than 70%)	5 (Herbicidal ratio of 90% or more (almost completely withered))
CC(CC1CC(O)=C(c2c(C)cc(C)cc2C)C1=O)=NOCC(C)Br (stereo not shown) [1-135]	0 (Herbicidal ratio of 5% or lower (almost no effect))		5 (Herbicidal ratio of 90% or more (almost completely withered))	4 (Herbicidal ratio of 70% or higher and lower than 90%)	3 (Herbicidal ratio of 40% or higher and lower than 70%)	3 (Herbicidal ratio of 40% or higher and lower than 70%)	1 (Herbicidal ratio of 5% or higher and lower than 20%)	0 (Herbicidal ratio of 5% or lower (almost no effect))	5 (Herbicidal ratio of 90% or more (almost completely withered))	5 (Herbicidal ratio of 90% or more (almost completely withered))	0 (Herbicidal ratio of 5% or lower (almost no effect))	5 (Herbicidal ratio of 90% or more (almost completely withered))	5 (Herbicidal ratio of 90% or more (almost completely withered))	0 (Herbicidal ratio of 5% or lower (almost no effect))	5 (Herbicidal ratio of 90% or more (almost completely withered))
CC(CC1CC(O)=C(c2c(C)cc(C)cc2C)C1=O)=NOCc1ccc(Cl)cc1 (stereo not shown) [1-137]	0 (Herbicidal ratio of 5% or lower (almost no effect))		5 (Herbicidal ratio of 90% or more (almost completely withered))	3 (Herbicidal ratio of 40% or higher and lower than 70%)	4 (Herbicidal ratio of 70% or higher and lower than 90%)	2 (Herbicidal ratio of 20% or higher and lower than 40%)	0 (Herbicidal ratio of 5% or lower (almost no effect))	0 (Herbicidal ratio of 5% or lower (almost no effect))	5 (Herbicidal ratio of 90% or more (almost completely withered))	5 (Herbicidal ratio of 90% or more (almost completely withered))	0 (Herbicidal ratio of 5% or lower (almost no effect))	5 (Herbicidal ratio of 90% or more (almost completely withered))	5 (Herbicidal ratio of 90% or more (almost completely withered))	0 (Herbicidal ratio of 5% or lower (almost no effect))	5 (Herbicidal ratio of 90% or more (almost completely withered))
CC(CC1CC(O)=C(c2c(C)cc(C)cc2C)C1=O)=NOCc1ccc(C(F)(F)F)cc1 (stereo not shown) [1-138]	0 (Herbicidal ratio of 5% or lower (almost no effect))		5 (Herbicidal ratio of 90% or more (almost completely withered))	2 (Herbicidal ratio of 20% or higher and lower than 40%)	3 (Herbicidal ratio of 40% or higher and lower than 70%)	3 (Herbicidal ratio of 40% or higher and lower than 70%)	0 (Herbicidal ratio of 5% or lower (almost no effect))	0 (Herbicidal ratio of 5% or lower (almost no effect))	5 (Herbicidal ratio of 90% or more (almost completely withered))	5 (Herbicidal ratio of 90% or more (almost completely withered))	0 (Herbicidal ratio of 5% or lower (almost no effect))	5 (Herbicidal ratio of 90% or more (almost completely withered))	5 (Herbicidal ratio of 90% or more (almost completely withered))	0 (Herbicidal ratio of 5% or lower (almost no effect))	5 (Herbicidal ratio of 90% or more (almost completely withered))
